From the supplement of paper PMC4862054
Several values for one entry are separate records, joined by “and”; a condition that tells them apart may be missing. Equal values may be shown once.

What was measured:
[1] = test system: CAL-148; assay: normalised viability (% of control), CellTiter-Blue; higher = more viable cells (about 100 = DMSO control); settings: incubation time: 72 h
Protocol: (§1)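 DSRT, CellTiter-Blue viability, 72 h incubation. Signal is normalised to DMSO and benzethonium chloride controls. Value is the normalised response at dose 7.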

[2] = test system: CAL-51; assay: as above; settings: incubation time: 72 h
Protocol: as §1

[3] = test system: CAL-85-1; assay: as above; settings: incubation time: 72 h
Protocol: as §1

[4] = test system: HDQ-P1; assay: as above; settings: incubation time: 72 h
Protocol: as §1

[5] = test system: MDA-MB-453; assay: as above; settings: incubation time: 72 h
Protocol: as §1

[6] = test system: MFM-223; settings: 72 h
Summary of the method: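 Compound dissolved in 5 µl medium was placed in 384-well plates before 20 µl of breast cancer cell suspension was added, and the plates were incubated for 72 h. Cells then received 2.5 µl CellTiter-Blue for 2 h at 37 °C, and fluorescence was read at 560/590 nm. EC50 values come from percent-inhibition dose-response fits that were censored at the highest concentration, with plates normalised to vehicle and a positive kill control and rows with a zero drug sensitivity score excluded.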

[7] = test system: BT-474; assay: normalised viability (% of control), CellTiter-Blue; higher = more viable cells (about 100 = DMSO control); settings: incubation time: 72 h
Summary of the method: (§2)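 Normalised viability is given for a single listed concentration of the series. In 384-well plates, breast cancer cell lines were incubated 72 h with compound, then read with CellTiter-Blue (2 h, 37 °C) at 560/590 nm. Per-plate scaling set vehicle to 100 and a positive kill control to 0, with Z'-factor quality control.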

[8] = test system: BT-549; assay: as above; settings: incubation time: 72 h
Summary of the method: as §2

[9] = test system: CAL-120; assay: as above; settings: incubation time: 72 h
Summary of the method: as §2

[10] = test system: CAL-148; assay: as above; settings: incubation time: 72 h; remark: listed apart in the source
Summary of the method: as §2

[11] = test system: CAL-51; assay: as above; settings: incubation time: 72 h; remark: listed apart in the source
Summary of the method: as §2

[12] = test system: CAL-85-1; assay: as above; settings: incubation time: 72 h; remark: listed apart in the source
Summary of the method: as §2

[13] = test system: DU-4475; assay: as above; settings: incubation time: 72 h
Summary of the method: as §2

[14] = test system: HCC1143; assay: as above; settings: incubation time: 72 h
Summary of the method: as §2

[15] = test system: HCC1599; assay: as above; settings: incubation time: 72 h
Summary of the method: as §2

[16] = test system: HCC1937; assay: as above; settings: incubation time: 72 h
Summary of the method: as §2

[17] = test system: HDQ-P1; assay: as above; settings: incubation time: 72 h; remark: listed apart in the source
Summary of the method: as §2

[18] = test system: Hs578T; assay: as above; settings: incubation time: 72 h
Summary of the method: as §2

[19] = test system: MDA-MB-231; assay: as above; settings: incubation time: 72 h
Summary of the method: as §2

[20] = test system: MDA-MB-436; assay: as above; settings: incubation time: 72 h
Summary of the method: as §2

[21] = test system: MDA-MB-453; assay: as above; settings: incubation time: 72 h; remark: listed apart in the source
Summary of the method: as §2

[22] = test system: MDA-MB-468; assay: as above; settings: incubation time: 72 h
Summary of the method: as §2

[23] = test system: MFM-223; assay: as above; settings: incubation time: 72 h
Summary of the method: as §2

[24] = test system: SK-BR-3; assay: as above; settings: incubation time: 72 h
Summary of the method: as §2

Nc1cccc2c1CN(C1CCC(=O)NC1=O)C2=O (stereo not given) [Lenalidomide] (1000 nM)
normalised viability [1]: 95.3% and 104% | normalised viability [2]: 103% and 100% | normalised viability [3]: 80% and 74.3% | normalised viability [4]: 110% and 96.9% | normalised viability [5]: 85.6% and 104%

C[C@]12O[C@H](C[C@]1(O)CO)n1c3ccccc3c3c4c(c5c6ccccc6n2c5c31)CNC4=O [Lestaurtinib] (100 nM)
normalised viability [1]: 104% | normalised viability [2]: 110% | normalised viability [3]: 99.5% | normalised viability [4]: 87.8% | normalised viability [5]: 75.1%

O=C1c2c(O)ccc(O)c2C(=O)c2c(NCCNCCO)ccc(NCCNCCO)c21 [Mitoxantrone] (100 nM)
normalised viability [1]: 25.1% | normalised viability [2]: 31.2% | normalised viability [3]: 63.4% | normalised viability [4]: 74.2% | normalised viability [5]: 71.3%

Nc1ccccc1NC(=O)c1ccc(CNc2nccc(-c3cccnc3)n2)cc1 [Mocetinostat] (1000 nM)
normalised viability [1]: 65.5% | normalised viability [2]: 77.8% | normalised viability [3]: 68.7% | normalised viability [4]: 90.1% | normalised viability [5]: 41.6%

COc1nc(N)nc2c1ncn2[C@@H]1O[C@H](CO)[C@@H](O)[C@@H]1O [Nelarabine] (1000 nM)
normalised viability [1]: 102% and 122% | normalised viability [2]: 96.7% and 110% | normalised viability [3]: 101% and 98.4% | normalised viability [4]: 76.9% and 92.7% | normalised viability [5]: 101% and 89.3%

Cc1ccc(Nc2nccc(N(C)c3ccc4c(C)n(C)nc4c3)n2)cc1S(N)(=O)=O [Pazopanib] (1000 nM)
normalised viability [1]: 85.6% | normalised viability [2]: 84.2% | normalised viability [3]: 87.6% | normalised viability [4]: 99.8% | normalised viability [5]: 68.8%

O=C(CCBr)N1CCN(C(=O)CCBr)CC1 [Pipobroman]
EC50, CellTiter-Blue viability [6]: 6.19 µM | normalised viability ([7]; 10 nM): 120% | normalised viability ([7]; 1000 nM): 102% | normalised viability ([7]; 10000 nM): 133% | normalised viability ([8]; 10 nM): 87.1% | normalised viability ([8]; 1000 nM): 87.1% | normalised viability ([8]; 10000 nM): 84.2% | normalised viability ([9]; 10 nM): 90.1% | normalised viability ([9]; 1000 nM): 103% | normalised viability ([9]; 10000 nM): 84.9% | normalised viability ([10]; 3 nM): 97.9% | normalised viability ([10]; 30 nM): 102% | normalised viability ([10]; 100 nM): 103% | normalised viability ([11]; 3 nM): 114% | normalised viability ([11]; 30 nM): 111% | normalised viability ([11]; 100 nM): 103% | normalised viability ([12]; 3 nM): 99.3% | normalised viability ([12]; 30 nM): 98.6% | normalised viability ([12]; 100 nM): 100% | normalised viability ([13]; 3 nM): 111% | normalised viability ([13]; 30 nM): 105% | normalised viability ([13]; 100 nM): 108% | normalised viability ([14]; 10 nM): 82% | normalised viability ([14]; 1000 nM): 86.2% | normalised viability ([14]; 10000 nM): 88.2% | normalised viability ([15]; 10 nM): 97% | normalised viability ([15]; 1000 nM): 92.8% | normalised viability ([15]; 10000 nM): 83.2% | normalised viability ([16]; 10 nM): 89.2% | normalised viability ([16]; 1000 nM): 77.9% | normalised viability ([16]; 10000 nM): 85.3% | normalised viability ([17]; 3 nM): 104% | normalised viability ([17]; 30 nM): 83.8% | normalised viability ([17]; 100 nM): 107% | normalised viability ([18]; 10 nM): 107% | normalised viability ([18]; 1000 nM): 97% | normalised viability ([18]; 10000 nM): 95.8% | normalised viability ([19]; 10 nM): 97.8% | normalised viability ([19]; 1000 nM): 104% | normalised viability ([19]; 10000 nM): 89.4% | normalised viability ([20]; 10 nM): 92.6% | normalised viability ([20]; 1000 nM): 98.7% | normalised viability ([20]; 10000 nM): 81.7% | normalised viability ([21]; 3 nM): 124% | normalised viability ([21]; 30 nM): 95.9% | normalised viability ([21]; 100 nM): 92.7% | normalised viability ([22]; 10 nM): 98% | normalised viability ([22]; 1000 nM): 94.2% | normalised viability ([22]; 10000 nM): 87.4% | normalised viability ([23]; 10 nM): 86.6% | normalised viability ([23]; 1000 nM): 90.4% | normalised viability ([23]; 10000 nM): 35.7% | normalised viability ([24]; 10 nM): 101% | normalised viability ([24]; 1000 nM): 119% | normalised viability ([24]; 10000 nM): 95.6%
